According to PubChem BioAssay AID179 (DTP/NCI, 2004):
Active and inactive are the calls of the source.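 How the source made its calls: active means compounds giving half or more protection of infected cells from virus-caused growth loss, again on retest; inactive means the rest.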

Test system: CEM cells HIV-1 protection, formazan growth assay
Assay: NCI AIDS Antiviral Assay
Details: for IC50: measured here: growth of uninfected CEM cells
Outline: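 Protection of CEM cells against HIV-1 was scored from cell growth (soluble formazan) across five concentrations, with parallel uninfected cells. Lack of protection may reflect toxicity.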

Row | Compound | EC50 | IC50 | outcome
1 | O=C(Cc1ccccc1)NN1C(=O)C(Cl)C1c1cc(Br)cc(Br)c1O (stereo not drawn) | > 20.4 µM | 11.5 µM | –
2 | COc1ccc(-c2nc(-c3ccc(OC)cc3)n(-c3ccccc3)n2)cc1 | > 200 µM | 58.9 µM | –
3 | O=C1CSC(/C(=C\c2ccc(Cl)cc2)c2nc3ccccc3[nH]2)=N1 | > 10 µM | > 10 µM | –
4 | O=[N+]([O-])c1cccc(C2=NOC(C3CCCCC3)C2)c1 (stereo not drawn) | > 36.3 µM | > 36.3 µM | –
5 | C=CCCCCOC1C=CC(O)C(CO)O1 (stereo not drawn) | > 200 µM | > 200 µM | –
6 | C[CH2][Sn]([CH2]C)([O]C(=O)c1ccc(OC)c(OC)c1OC)[O]C(=O)c1ccc(OC)c(OC)c1OC | > 83.2 µM | 7.59 µM | –
7 | CCOC(=O)/C=C/[C@@H](CC)O[Si](C(C)C)(C(C)C)C(C)C | > 200 µM | > 200 µM | –
8 | CN(C)c1ccc(C(c2c(O)c3ccccc3oc2=O)c2c(O)c3ccccc3oc2=O)cc1 | > 200 µM | 27.5 µM | –
9 | O=C1Oc2c(ccc3ccccc23)C2OCNCC12 (stereo not drawn) | > 200 µM | 129 µM | –
10 | CC(C)C1=CC23CCC4C(C)(C(=O)O)CCCC4(C)C2CC1C1C(=O)N(c2cccc(N4C(=O)C5C6CC7C8(C)CCCC(C)(C(=O)O)C8CCC7(C=C6C(C)C)C5C4=O)c2)C(=O)C13 (stereo not drawn) | > 269 µM | 13.2 µM | –
11 | Cc1cc2c(c(S(=O)(=O)c3ccccc3[N+](=O)[O-])c1)NCCC2 | 1.55 µM | 21.4 µM | –
12 | O=C1C=C(c2c(-c3ccccc3)[nH]c3ccccc23)C(=O)N1c1ccccc1 | > 200 µM | 15.5 µM | –
13 | Cc1ccc(S(=O)(=O)OCC23CCC(CC2)C2CC23)cc1 (stereo not drawn) | > 100 µM | 70.8 µM | –
14 | O=C(Cn1c2c(c3ccccc31)CCCC2)N1CCCCC1 | > 200 µM | > 200 µM | –
15 | O=Nc1c(S(=O)(=O)O)cc2cc(S(=O)(=O)O)ccc2c1O | > 200 µM | > 200 µM | –
16 | CC1=CC(C)(C)C(C#N)(C#N)C(N)=C1C#N | > 200 µM | 95.5 µM | –
17 | O=C(Cc1ccccc1)Nn1c(-c2ccccc2)nc2ccccc2c1=O | 123 µM | > 200 µM | –
18 | COc1ccc(N=Nc2ccc3oc(=O)c(C(=O)Nc4ccccc4)cc3c2)cc1 | > 200 µM | 33.1 µM | –
19 | O=C1CC(c2ccccc2)Sc2ccccc2N1 (stereo not drawn) | > 200 µM | 89.1 µM | –
20 | CC1CCC2CC1NC(=O)CCOCCC(=O)NC2(C)C (stereo not drawn) | > 45.7 µM | > 45.7 µM | –
21 | CC(=O)NS(=O)(=O)c1ccc(NC(=O)c2ccccc2SC(=O)c2ccccc2)cc1 | 15.1 µM | 117 µM | –
22 | Nc1nn2cc3c(nc2c1N=Nc1ccc(Cl)cc1)CCC3 | > 151 µM | > 100 µM | –
23 | Nc1c(Cl)c([N+](=O)[O-])cc2c1OCCCCO2 | > 200 µM | 123 µM | –

Row | Compound | EC50 | IC50 | outcome
24 | CNS(=O)(=O)c1c(N)ncn1C | > 1100 µM | > 1100 µM | –
25 | CCOC(=O)CNc1nnnn1C1OC(CO)C(O)C1O (stereo not drawn) | > 832 µM | > 832 µM | –
26 | O=C1C(=O)C(c2ccccc2)Oc2ccccc21 (stereo not drawn) | > 200 µM | 25.1 µM | –
27 | O=C(NCCN(CCNC(=O)c1cccc(O)c1O)CCNC(=O)c1cccc(O)c1O)c1cccc(O)c1O | > 200 µM | 3.39 µM | –
28 | COc1ccc(OC)c2cc(C3(C)SCCCS3)ccc12 | – | – | inactive
29 | Cc1nc2c(=O)n(-c3ccccc3)c3ccccc3c2o1 | > 200 µM | 145 µM | –
30 | CCOC(=O)/C(C#N)=C/c1ccco1 | > 263 µM | > 263 µM | –
31 | CC(C)(Oc1ccccc1)C(=O)Sc1c(-c2ccccc2)c(=O)n(-c2ccccc2)c(=S)n1-c1ccccc1 | > 200 µM | 1.35 µM | –
32 | CC(C)(O)c1cc2nc3ccccc3nc2n1CCO | > 200 µM | > 200 µM | –
33 | COC(=O)c1c(NC(=O)C(C)C)n[nH]c1NC(=O)C(C)C | – | – | inactive
34 | O=C(NCCCCCN1CCC2(CCCCC2)CC1)C(C1CCCCC1)C1CCCCC1 | > 100 µM | 9.33 µM | –
35 | Clc1nc2cc3c(cc2n2cccc12)oc1ccccc13 | > 200 µM | > 200 µM | –
36 | N#COc1ccc(Oc2ccc(OC#N)cc2)cc1 | > 141 µM | 45.7 µM | –
37 | O=P(OCC1CCCO1)(OCC1CCCO1)OCC1CCCO1 (stereo not drawn) | – | – | inactive
38 | O=C1CC[C@H]2[C@@H]3N1c1ccccc1[C@@]31CCN3C/C(=C/CBr)[C@@H]2C[C@H]31 | > 75.9 µM | > 75.9 µM | –
39 | C=C=C(CC)C(C(=O)OC)N(CC)CC (stereo not drawn) | – | – | inactive
40 | c1ccn2nncc2c1 | > 200 µM | > 200 µM | –
41 | CC1(C)CC2=C(SC3C=CC=CC3N2)C(=O)C1C(=O)C(N)=O (stereo not drawn) | > 58.9 µM | > 58.9 µM | –
42 | Oc1ccc(-c2ccc(O)cc2O)c(O)c1 | > 200 µM | 132 µM | –
43 | O=Cc1ccc2c(c1)CC1(C2)Cc2ccc3c(c2C1)CCC3 (stereo not drawn) | > 200 µM | 7.41 µM | –
44 | C=CCCC(CCC=C)(C(=O)O)C(=O)O | > 1170 µM | > 1170 µM | –
45 | COc1cccc(C2NC(=O)N3C(c4cccc(OC)c4)NC(=O)N23)c1 (stereo not drawn) | > 200 µM | 89.1 µM | –
46 | O=C(O)C1CCCCN1c1ccccc1[N+](=O)[O-] (stereo not drawn) | – | – | inactive

Row | Compound | EC50 | IC50 | outcome
47 | CCOC(=O)CCn1cnc(N)n1 | – | – | inactive
48 | CCOC(=O)C1Nc2ccccc2[C@H]2OCC[C@@H]12 (stereo partly drawn) | > 525 µM | > 525 µM | –
49 | O=[N+]([O-])/C=C/c1c(Cl)cccc1Cl | – | – | inactive
50 | O=c1c2ncn(COCCCl)c2n(-c2ccccc2)c(=S)n1-c1ccccc1 | – | – | inactive
51 | CC1=NN(C(=O)c2ccccc2O)C(=O)C1N=Nc1ccccc1C(=O)O (stereo not drawn) | – | – | inactive
52 | O=C(Nc1cccc(O)c1)C(=O)C(C(=O)c1ccccc1F)C1OC(=O)c2ccccc21 (stereo not drawn) | > 302 µM | 24 µM | –
53 | C(#C[PH+](c1ccccc1)c1ccccc1)c1ccccc1.C(#C[PH+](c1ccccc1)c1ccccc1)c1ccccc1.C(#C[PH+](c1ccccc1)c1ccccc1)c1ccccc1.[C-]#[O+].[C-]#[O+].[C-]#[O+].[W] | > 0.676 µM | > 0.676 µM | –
54 | COc1ccccc1/C=C/c1nc2ccccc2o1 | > 200 µM | 107 µM | –
55 | COc1nnc(C)c2[nH]c(=S)[nH]c12 | > 457 µM | > 457 µM | –
56 | CCOc1cc(C=Nc2ccc(Oc3ccc(Cl)cc3)c(Cl)c2)ccc1O | > 200 µM | 29.5 µM | –
57 | N#Cc1ccc(-n2cccc2)cc1 | > 200 µM | > 200 µM | –
58 | O=c1[nH]nc(-c2ccccc2)n1/N=C\CC/C=N\n1c(-c2ccccc2)n[nH]c1=O | – | – | inactive
59 | CSc1nc2c(c(O)c(C)c(=O)n2C2OCC(OC(C)=O)C(OC(C)=O)C2OC(C)=O)c(=O)n1C (stereo not drawn) | > 70.8 µM | > 70.8 µM | –
60 | c1ccc(N2N=C(c3ccco3)CC2c2ccco2)cc1 (stereo not drawn) | > 25.7 µM | > 25.7 µM | –
61 | Cc1ccccc1CC1(Br)CC(C)(C)c2ccccc2C1=O (stereo not drawn) | > 200 µM | 29.5 µM | –
62 | COc1cc(Br)c(CC2NCCc3cc(OC)c(OC)cc32)cc1OC (stereo not drawn) | > 224 µM | > 224 µM | –
63 | CC1(C)OC2C3CCC(C)(C3)C2(c2ccccc2)O1 (stereo not drawn) | > 87.1 µM | > 87.1 µM | –
64 | O=S(=O)(c1ccc(Cl)cc1)c1ccccc1C1=NCCN1 | > 200 µM | > 200 µM | –
65 | CC(=O)Oc1cc2oc(=O)cc(C)c2cc1OC(C)=O | – | – | inactive
66 | COc1cc2c(cc1OC)C(Cl)C(c1ccc(F)cc1)=C2Cl (stereo not drawn) | – | – | inactive
67 | Cc1ccccc1SC(/C=C/NNC1=NC(c2ccccc2)C(c2ccccc2)=NN1)c1ccccc1 (stereo not drawn) | > 20 µM | > 20 µM | –
68 | Cc1c(-c2ccccc2)[nH]n(C2=NCCN2)c1=O | > 200 µM | 120 µM | –
69 | Cc1ccc([S+](c2ccccc2)c2cc(C)ccc2C)cc1 (stereo not drawn) | > 646 µM | 1.17 µM | –

Row | Compound | EC50 | IC50 | outcome
70 | CC(=O)NC(CCCCN)C(=O)NCc1ccccc1 (stereo not drawn) | > 912 µM | > 912 µM | –
71 | CC1(C)CC(=O)c2c(nc3c(ccc4ccccc43)c2-c2ccc(NC(=O)CCCC(=O)Nc3ccc(-c4c5c(nc6c4ccc4ccccc46)CC(C)(C)CC5=O)cc3)cc2)C1 | > 50.1 µM | > 50.1 µM | –
72 | O=C(c1ccccc1)c1cn(/N=C\c2ccccc2)c(=O)nc1-c1ccccc1 | – | – | inactive
73 | CN(CCO)CC(O)Cn1cnc2c1c(=O)n(C)c(=O)n2C (stereo not drawn) (tested in a mixture with another compound) | > 200 µM | > 200 µM | –
74 | COc1ccc(C(=O)[O][Sn]([c]2ccccc2)([c]2ccccc2)[c]2ccccc2)c(OC)c1OC | > 2 µM | 0.11 µM | –
75 | CCOC(=O)c1[nH]n(-c2ccccc2)c(=O)c1/C=N/C(=S)NCCc1ccc(OC)c(OC)c1 | > 200 µM | 51.3 µM | –
76 | C[N+](C)(C)c1cc2c(nn1)Nc1ccccc1S2 | > 200 µM | 10 µM | –
77 | CNC(=O)CNC(=O)N(C[C@@H]1CCCN1C(=O)[C@H](CC(C)C)NC(=O)OC(C)(C)C)C(C)C | > 200 µM | > 200 µM | –
78 | CCCCCCCCCCCCCCCCCCOCC(COP(=O)(O)OCC1OC(n2cc(C)c(=O)[nH]c2=O)CC1N=[N+]=[N-])OC(=O)CCCCCCCCCCCCCCC (stereo not drawn) | > 50.1 µM | > 50.1 µM | –
79 | COc1ccc(S(=O)(=O)c2nnc(S(=O)(=O)Cc3ccccc3)s2)cc1 | > 200 µM | 3.63 µM | –
80 | O=c1cc(C(F)(F)F)c2cc3c(cc2o1)NCCC3 | > 9.77 µM | > 9.77 µM | –
81 | CCOC(=O)/C(=C/c1ccco1)P(=O)(OCC)OCC | > 832 µM | 490 µM | –
82 | O=C(NCCC[P+](c1ccccc1)(c1ccccc1)c1ccccc1)OCc1ccccc1 | > 200 µM | 1.58 µM | –
83 | CC1NCCc2c1[nH]c1ccc(O)cc21 (stereo not drawn) | – | – | inactive
84 | CN(C)c1nc(N)c(C#N)c(C#N)c1C#N | > 200 µM | 8.71 µM | –
85 | N#CCCn1c(CCC(=O)Nc2ccc(Cl)cc2Cl)n[nH]c1=S | 66.1 µM | 97.7 µM | –
86 | CCN1CC2(C)CC[C@@H](OC)C34[C@@H]2[C@H](OC(C)=O)C2(OCO[C@@]25C[C@H](OC)C2C[C@]3(O)[C@@H]5[C@H]2O)[C@H]14 | – | – | inactive
87 | COc1cc(CNc2nc3c(N)cc(C(F)(F)F)cc3nc2-c2ccccc2)cc(OC)c1OC | > 20.4 µM | > 20.4 µM | –
88 | C/C=C/CP(=O)(c1ccccc1)c1ccccc1 | 0.0631 µM | > 200 µM | –
89 | Cc1[nH]n(C(=O)c2ccc(Cl)cc2)c(=O)c1/C=C1\C(O)=CC(=O)c2ccccc21 | > 12.9 µM | > 12.9 µM | –
